Experimental data published in patent publication US20240180883A1, “TREATMENT OF MIGRAINE” (Allergan Pharmaceuticals International Limited, priority 2020, published 2024).
Several values for one entry are separate records, joined by “and”; a condition that tells them apart may be missing. Equal values may be shown once. Read-outs that look alike come from different tables or passages of the source.

Test: Phase 1 hepatic impairment PK study, single 100 mg dose
Assay type: in vivo, human
Settings: 100 mg single oral dose; for AUC(0-inf) / AUC(0-t) / Cmax / Tmax / Vd/F / half-life: both sexes, human, plasma, po, 100 mg; for Tmax: read-out: Tmax, median (min-max); for Vd/F: read-out: Vz/F, mean ±SD; for half-life: read-out: t1/2, mean ±SD (converted)
Excerpt: The study was intended to enroll 24 male and female participants with hepatic impairment (8 mildly impaired, 8 moderately impaired, and 8 severely impaired) and 8 healthy male and female participants with normal hepatic function, aged 18 through 75 years, who were matched closely to the age, weight, and gender of the hepatically impaired groups.
Participants with hepatic impairment were categorized according to the Child-Pugh classification. Participants with moderate hepatic impairment (Child-Pugh B classification) were not enrolled until 4 patients with mild hepatic impairment (Child-Pugh A classification) had completed the study; participants with severe hepatic impairment (Child-Pugh C classification) were not to be enrolled until 4 patients with moderate hepatic impairment had completed the study. […] Healthy participants with normal hepatic function were recruited after participants with hepatic impairment had been enrolled in the study, in order to match them as closely as possible to the hepatically impaired participants with respect to age, weight, and gender. Participants with normal hepatic function were matched specifically according to age, not to exceed 5 years between the means of the normal group and the 3 hepatically impaired groups. Weight range deviated<20% between the means of the normal group and the 3 hepatically impaired groups; and gender, as much as possible to match the ratio of the normal hepatic function group to the 3 hepatically impaired groups.
Fasting continued for 4 hours after dosing. Because minimal to no accumulation was expected after once daily repeated dosing for ubrogepant, a single-dose study was considered adequate to satisfy the objectives of the present study.
Sampling was also done at the following times for plasma protein binding determinations: Day 1 at 0 hour (predose) and 2 hours post dose.

Which “CL/F, mean ±SD” value (mild hepatic impairment) does the source give for `C[C@@H]1[C@H](c2ccccc2)C[C@H](NC(=O)c2cnc3c(c2)C[C@@]2(C3)C(=O)Nc3ncccc32)C(=O)N1CC(F)(F)F` [ubrogepant, (3′S)-N-((3S,5S,6R)-6-methyl-2-oxo-5-phenyl-1-(2,2,2-trifluoroethyl)piperidin-3-yl)-2′-oxo-1′,2′,5,7-etrahydrospiro[cyclopenta[b]pyridine-6,3′-pyrrolo[2,3-b]pyridine]-3-carboxamide] here?
Its value is 66.38 ± 26.15 L/h.

What about the “AUC0-∞ (exposure) higher than in normal hepatic function” value (moderate hepatic impairment) of the same molecule?
The value was 52% and 50%.

What about the “CL/F, mean ±SD” value (moderate hepatic impairment) of the same molecule?
Its value is 49.78 ± 23.84 L/h.

And the “Cmax higher than in normal hepatic function” value (moderate hepatic impairment)?
The value was 25%.

What about the “CL/F, mean ±SD” value (normal hepatic function) of the same molecule?
The value was 69.01 ± 23.54 L/h.

And the “AUC0-∞ (exposure) higher than in normal hepatic function” value (severe hepatic impairment)?
Its value is 115%.

What about the “CL/F, mean ±SD” value (severe hepatic impairment) of the same molecule?
The value was 31.23 ± 7.49 L/h.

What about the “Cmax higher than in normal hepatic function” value (severe hepatic impairment) of the same molecule?
The value was 40%.

What about the AUC(0-inf) (mild hepatic impairment, read-out: AUC0-inf, mean ±SD) of the same molecule?
Its AUC(0-inf) is 1760 ± 775 ng·h/mL.

What about the AUC(0-t) (mild hepatic impairment, read-out: AUC0-t, mean ±SD) of the same molecule?
Its AUC(0-t) is 1750 ± 767 ng·h/mL.

And the Cmax (mild hepatic impairment, read-out: Cmax, mean ±SD)?
Its Cmax is 411 ± 190 ng/mL.

What about the Tmax (mild hepatic impairment) of the same molecule?
Its Tmax is 1.5 h.

And the Vd/F (mild hepatic impairment)?
Its Vd/F is 559 ± 358 L.

What about the half-life (mild hepatic impairment) of the same molecule?
Its half-life is 6.56 ± 5.93 h.

And the AUC(0-t) (mild-impaired, read-out: Geometric LSM AUC0-t, Test)?
Its AUC(0-t) is 1610 ng·h/mL.

And the AUC(0-inf) (mild-impaired, read-out: Geometric LSM AUC0-∞, Test)?
Its AUC(0-inf) is 1630 ng·h/mL.

And the Cmax (mild-impaired, read-out: Geometric LSM Cmax, Test)?
Its Cmax is 375 ng/mL.

What about the AUC(0-inf) (moderate hepatic impairment, read-out: AUC0-inf, mean ±SD) of the same molecule?
The AUC(0-inf) was 2820 ± 2060 ng·h/mL.

And the AUC(0-t) (moderate hepatic impairment, read-out: AUC0-t, mean ±SD)?
The AUC(0-t) was 2780 ± 2020 ng·h/mL.

What about the Cmax (moderate hepatic impairment, read-out: Cmax, mean ±SD) of the same molecule?
Its Cmax is 480 ± 189 ng/mL.

What about the Tmax (moderate hepatic impairment) of the same molecule?
The Tmax was 2 h.

And the Vd/F (moderate hepatic impairment)?
The Vd/F was 365 ± 130 L.

What about the half-life (moderate hepatic impairment) of the same molecule?
The half-life was 5.95 ± 2.68 h.

What about the AUC(0-t) (moderate-impaired, read-out: Geometric LSM AUC0-t, Test) of the same molecule?
Its AUC(0-t) is 2300 ng·h/mL.

And the AUC(0-inf) (moderate-impaired, read-out: Geometric LSM AUC0-∞, Test)?
Its AUC(0-inf) is 2320 ng·h/mL.

And the Cmax (moderate-impaired, read-out: Geometric LSM Cmax, Test)?
Its Cmax is 449 ng/mL.

What about the AUC(0-inf) (normal hepatic function, read-out: AUC0-inf, mean ±SD) of the same molecule?
The AUC(0-inf) was 1600 ± 533 ng·h/mL.

What about the AUC(0-t) (normal hepatic function, read-out: AUC0-t, mean ±SD) of the same molecule?
Its AUC(0-t) is 1590 ± 530 ng·h/mL.

And the Cmax (normal hepatic function, read-out: Cmax, mean ±SD)?
The Cmax was 406 ± 219 ng/mL.

What about the AUC(0-t) (normal hepatic function, read-out: Geometric LSM AUC0-t, Reference) of the same molecule?
The AUC(0-t) was 1510 ng·h/mL.

What about the AUC(0-inf) (normal hepatic function, read-out: Geometric LSM AUC0-∞, Reference) of the same molecule?
Its AUC(0-inf) is 1520 ng·h/mL.

And the Cmax (normal hepatic function, read-out: Geometric LSM Cmax, Reference)?
The Cmax was 360 ng/mL.

And the Tmax (normal hepatic function)?
The Tmax was 1.75 h.

And the Vd/F (normal hepatic function)?
The Vd/F was 533 ± 320 L.

What about the half-life (normal hepatic function) of the same molecule?
Its half-life is 5.6 ± 3.68 h.

And the AUC(0-inf) (severe hepatic impairment, read-out: AUC0-inf, mean ±SD)?
Its AUC(0-inf) is 3330 ± 705 ng·h/mL.

And the AUC(0-t) (severe hepatic impairment, read-out: AUC0-t, mean ±SD)?
Its AUC(0-t) is 3310 ± 704 ng·h/mL.

What about the Cmax (severe hepatic impairment, read-out: Cmax, mean ±SD) of the same molecule?
The Cmax was 509 ± 75.8 ng/mL.

What about the Tmax (severe hepatic impairment) of the same molecule?
Its Tmax is 1.5 h.

What about the Vd/F (severe hepatic impairment) of the same molecule?
The Vd/F was 248 ± 29.9 L.

And the half-life (severe hepatic impairment)?
The half-life was 5.62 ± 0.62 h.

What about the AUC(0-t) (severe-impaired, read-out: Geometric LSM AUC0-t, Test) of the same molecule?
The AUC(0-t) was 3250 ng·h/mL.

What about the AUC(0-inf) (severe-impaired, read-out: Geometric LSM AUC0-∞, Test) of the same molecule?
The AUC(0-inf) was 3270 ng·h/mL.

What about the Cmax (severe-impaired, read-out: Geometric LSM Cmax, Test) of the same molecule?
The Cmax was 505 ng/mL.
